Measured values: patent US11406622B2, “Glaucocalyxin a derivative, pharmaceutically acceptable salt thereof, or pharmaceutical composition thereof and uses thereof in preparation of drugs for treating psoriasis” (SUZHOU PHARMAVAN CO., LTD., priority 2017, dated 2022)
Structures can show the parent of a compound that is named as a salt.

What follows are compounds tested on human keratinocytes (HaCaT) (assay: Effect on proliferation of human keratinocytes, CCK-8, 48 h (Example 5)). Settings: 48 hours of treatment.
Format: cell-based
Method: In this example, the glaucocalyxin A derivatives of the present application, or pharmaceutically acceptable salts thereof, were examined for the effect on the proliferation of human keratinocytes. In this example, the glaucocalyxin A derivatives as shown in Table 1 were examined by using the following procedure. A cell suspension was prepared and inoculated into three 96-well plates at 8000 cells in a volume of 150 μl per well, which were then cultured overnight in an incubator at 37° C., 5% CO2. On the next day, 50 μl of test compound solution at different concentrations was added to each well. Triplicate wells were set up for each concentration. A vehicle control group (without compound), a cell control group (without compound and vehicle), and a blank medium control group (without cells, a well for null adjustment) were also set up, and cultured for an additional 48 hours. CCK-8 staining working solution was added at 110 μL per well, and cultured for additional 1-4 h. At the end of the culture, the absorbances were measured at 450 nm (OD450 nm) on a Bio-Tek enzyme-linked immunosorbent assay. The results were expressed as the mean OD450 nm value of triplicates±standard deviation (x±sd). The Origin 7.0 was used for plotting and analysis. A fitting curve was obtained by plotting the OD value of each group against the logarithmic concentration of the test compound, and then the IC50 value was determined.

| Structure (SMILES) | IC50 [µM] |
| --- | --- |
| C=C1C(=O)C23C(O)CC4C(C)(C)c5nc(NC6CCCCC6)sc5CC4(C)C2CCC1C3O (stereo not shown) [Compound 19] | 8.16 |
| C=C1C(=O)C23C(O)CC4C(C)(C)c5nc(N)sc5CC4(C)C2CCC1C3O (stereo not shown) [Compound 06] | 2.91 |
| C=C1C(=O)C23C(O)CC4C(C)(C)c5nc(NC(C)C)sc5CC4(C)C2CCC1C3O (stereo not shown) [Compound 15] | 6.95 |
| C=C1C(=O)C23C(O)CC4C(C)(C)c5nc(Nc6ccncc6)sc5CC4(C)C2CCC1C3O (stereo not shown) [Compound 13] | 3.62 |
| C=C1C(=O)C23C(O)CC4C(C)(C)c5nc(N)sc5CC4(C)C2CCC1C3O (stereo not shown) [Compound 02] | 3.52 |
| C=C1C(=O)C23C(O)CC4C(C)(C)c5nc(N)sc5CC4(C)C2CCC1C3O (stereo not shown) [Compound 09] | 2.42 |
| C=C1C(=O)C23C(O)CC4C(C)(C)c5nc(N(CCC)CCC)sc5CC4(C)C2CCC1C3O (stereo not shown) [Compound 29] | 1.85 |
| C=C1C(=O)C23C(O)CC4C(C)(C)c5nc(NCCCCCC)sc5CC4(C)C2CCC1C3O (stereo not shown) [Compound 17] | 4.29 |
| C=C1C(=O)C23C(O)CC4C(C)(C)c5nc(N(C)C)sc5CC4(C)C2CCC1C3O (stereo not shown) [Compound 22] | 0.95 |
| C=C1C(=O)C23C(O)CC4C(C)(C)c5nc(N)sc5CC4(C)C2CCC1C3O (stereo not shown) [Compound 04] | 4.1 |
| C=C1C(=O)C23C(O)CC4C(C)(C)c5nc(N(CC)CC)sc5CC4(C)C2CCC1C3O (stereo not shown) [Compound 28] | 1.26 |
| C=C1C(=O)C23C(O)CC4C(C)(C)c5nc(N(C(C)C)C(C)C)sc5CC4(C)C2CCC1C3O (stereo not shown) [Compound 30] | 2.37 |
| C=C1C(=O)C23C(O)CC4C(C)(C)c5nc(N)sc5CC4(C)C2CCC1C3O (stereo not shown) [Compound 11] | 3 |
| C=C1C(=O)C23C(O)CC4C(C)(C)c5nc(NCCC)sc5CC4(C)C2CCC1C3O (stereo not shown) [Compound 14] | 7 |
| C=C1C(=O)C23C(O)CC4C(C)(C)c5nc(NCCCC)sc5CC4(C)C2CCC1C3O (stereo not shown) [Compound 16] | 8.88 |
| C=C1C(=O)C23C(O)CC4C(C)(C)c5nc(N)sc5CC4(C)C2CCC1C3O (stereo not shown) [Compound 05] | 3.45 |
| Br.C=C1C(=O)C23C(O)CC4C(C)(C)c5nc(NC)sc5CC4(C)C2CCC1C3O (stereo not shown) [Compound 24] | 3.17 |
| C=CCNc1nc2c(s1)CC1(C)C(CC(O)C34C(=O)C(=C)C(CCC13)C4O)C2(C)C (stereo not shown) [Compound 18] | 7.24 |
| C=C1C(=O)C23C(O)CC4C(C)(C)c5nc(N)sc5CC4(C)C2CCC1C3O (stereo not shown) [Compound 01] | 3.21 |
| C=C1C(=O)C23C(O)CC4C(C)(C)c5nc(N)sc5CC4(C)C2CCC1C3O (stereo not shown) [Compound 03] | 4.02 |
| C=C1C(=O)C23C(O)CC4C(C)(C)c5nc(NCc6ccccc6)sc5CC4(C)C2CCC1C3O (stereo not shown) [Compound 21] | 9.2 |
| C=C1C(=O)C23C(O)CC4C(C)(C)c5nc(N)sc5CC4(C)C2CCC1C3O (stereo not shown) [Compound 07] | 3.28 |
| C=C1C(=O)C23C(O)CC4C(C)(C)c5nc(N)sc5CC4(C)C2CCC1C3O (stereo not shown) [Compound 10] | 3.86 |
| C=C1C(=O)C23C(O)CC4C(C)(C)c5nc(NN)sc5CC4(C)C2CCC1C3O (stereo not shown) [Compound 12] | 1.21 |
| C=C1C(=O)C23C(O)CC4C(C)(C)c5nc(NCC)sc5CC4(C)C2CCC1C3O (stereo not shown) [Compound 25] | 5.49 |
| C=C1C(=O)C23C(O)CC4C(C)(C)c5nc(N)sc5CC4(C)C2CCC1C3O (stereo not shown) [Compound 08] | 2.85 |
| C=C1C(=O)C23C(O)CC4C(C)(C)c5nc(NCCC)sc5CC4(C)C2CCC1C3O (stereo not shown) [Compound 26] | 7.86 |
| C=C1C(=O)C23C(O)CC4C(C)(C)c5nc(Nc6ccccc6)sc5CC4(C)C2CCC1C3O (stereo not shown) [Compound 20] | 9.31 |
| C=C1C(=O)C23C(O)CC4C(C)(C)c5nc(NC(C)C)sc5CC4(C)C2CCC1C3O (stereo not shown) [Compound 27] | 6.92 |

Same assay, conditions: Homo sapiens, 48 hours of treatment

| Structure (SMILES) | IC50 [µM] |
| --- | --- |
| C=C1C(=O)[C@@]23[C@H](O)C[C@@H]4C(C)(C)C(=O)CC[C@@]4(C)[C@@H]2CC[C@@H]1[C@H]3O [Compound 31, glaucocalyxin A] | 30.5 |
| CN(C)C[C@@H]1C(=O)C23C(O)C1CCC2[C@]1(C)CCC(=O)C(C)(C)[C@H]1C[C@H]3O (stereo partly shown) [Compound 32, dimethylamino glaucocalyxin A hydrochloride, reference compound] | 18.7 |

These compounds were tested on mouse spleen lymphocytes (assay: ConA-induced proliferation of mouse spleen lymphocytes, MTT (Example 8)). Settings: Table 4, 0.001 μg/mL, 48 h, 5 μg/mL ConA.
Format: cell-based
Method: In this example, the glaucocalyxin A derivatives and pharmaceutically acceptable salts thereof were detected for the effect thereof on ConA-induced proliferation of mouse spleen lymphocytes.
2×10^7/mL cell suspension was prepared and a 5 μg/μL ConA stock solution was added thereto at a final concentration of 5 μg/mL. The resulting mixture was inoculated into a 96-well culture plate at 0.1 mL per well. Then 0.1 mL of test compound at different concentrations was added to each well. Triplicate or quadruplicate wells were set up for each group, and a vehicle control group (without compound), a stimulant control group (with ConA, without compound, and without vehicle), a cell control group (without ConA, without compound, and without vehicle), and a blank medium control group (without cells, a well for null adjustment) were also set up, and cultured at 37° C., 5% CO2 for 48 h. MTT solution at 5 mg/mL was added at 20 μl per well, and cultured for an additional 4 hours. The culture plate was taken out and centrifuged at 1000 rpm for 10 min. The supernatant of each well was aspirated, and 100 μL of SDS cell lysis solution was added to each well, and cultured overnight. On the next day, the absorbance at 550 nm (OD550nm) was measured on an enzyme-linked immunoassay analyzer. The results were expressed as the mean OD550nm value of the triplicates or quadruplicates±standard deviation (x±sd). SPSS software version 17.0 was used for statistical analysis of the mean values, that is, the vehicle group was compared with the stimulant group, and the test group of each compound concentration was compared with the corresponding vehicle control group. The cell survival rate of each group was calculated according to the mean value for the compound treatment group and the mean value for the vehicle control group, that is, the cell survival rate (%)=the mean value for the compound treatment group/the mean value for the vehicle control group×100%. A linear regression equation was obtained by plotting the cell survival rate of each group against the concentration of the test compound, statistical test of the correlation coefficient was conducted, and then the IC50 value was determined.

| Structure (SMILES) | OD550nm value (x ± sd) | Survival rate (%) |
| --- | --- | --- |
| CC(C)[C@]12O[C@H]1[C@@H]1O[C@]13[C@]1(O[C@H]1C[C@H]1C4=C(CC[C@@]13C)C(=O)OC4)[C@@H]2O [triptolide, reference compound] | 1.03 | 98 |

Same assay, conditions: Table 4, 0.1 μg/mL, 48 h, 5 μg/mL ConA

| Structure (SMILES) | OD550nm value (x ± sd) | Survival rate (%) |
| --- | --- | --- |
| CC(C)[C@]12O[C@H]1[C@@H]1O[C@]13[C@]1(O[C@H]1C[C@H]1C4=C(CC[C@@]13C)C(=O)OC4)[C@@H]2O [triptolide, reference compound] | 0.42 | 40 |

Same assay, conditions: range of concentrations tested, 48 h, 5 μg/mL ConA

| Structure (SMILES) | effect on ConA-induced proliferation of mouse spleen lymphocytes (in words) |
| --- | --- |
| CC(C)[C@]12O[C@H]1[C@@H]1O[C@]13[C@]1(O[C@H]1C[C@H]1C4=C(CC[C@@]13C)C(=O)OC4)[C@@H]2O [triptolide, reference compound] | varying degrees of inhibition |

What follows are compounds tested on BALB/c mice (assay: Acute toxicity in BALB/c mice, single tail-vein injection (Example 9)). Settings: single intravenous injection, 10 mg/kg.
Format: in vivo, mouse
From the text: In this example, Compound 23 and Compound 24 were detected for their acute toxicities, and the detection method was as follows.
Experimental procedure: 40 BALB/c mice, half male and half female, were randomly divided into groups after weight measurement. The weight of an individual should be within the range of the average body weight±20%. Animals should be allowed to acclimatize to the environment for at least 5 days before the test, and healthy (if female, it must be un-pregnant) mice were selected as test animals. The main inspections during the acclimatization period included: whether it met the quality indicators required at the time of ordering; general state check; and whether the weight reached the weight range required by the test. Unqualified abnormal animals were not included in this test. A single tail-vein injection was administrated to the mice at a low, medium, or high dose, which was 5 mg/kg, 10 mg/kg, or 40 mg/kg respectively according to a blank preparation pre-test. An equal volume of vehicle was intravenously injected to establish a control group.
Mice were observed once respectively at 0 to 2 hours and 4 to 6 hours after each administration. If toxic symptoms occurred, the number of observations could be increased. (2) Gross anatomy observation: All the surviving mice in each group were dissected and observed on the 8th day of the experiment. The abnormal organs and tissues found in the observation of administration sites and in the gross anatomy observation that might be related to the test samples were photographed and recorded. (3) Disposal of dying animals: The state of the mouse and the observation time were recorded, and the body weight was measured. (4) Disposal of dead animals: The time of death or the time when the death was found was recorded, the body weight was measured, and then the dissection was quickly performed for gross observation to speculate the cause of death.

| Structure (SMILES) | animals that died |
| --- | --- |
| Br.C=C1C(=O)C23C(O)CC4C(C)(C)c5nc(NC)sc5CC4(C)C2CCC1C3O (stereo not shown) [Compound 24] | All animals |
